The source of these data is patent publication US6316495A, “Method for inhibition of retroviral replication” (priority 1999, dated 2001).

Common to all, as to format: biochemical
Experiment [1] has as its system HIV reverse transcriptase. Description: HIV reverse transcriptase activity with ADPRT, poly-ADP-ribosylated ADPRT and drug inhibitors of poly-ADP-ribosylation (FIG. 3, Example 4). To be noted: for HIV reverse transcriptase activity: absence of ADPRT. How it is done: Reverse transcriptase activity assay conditions were as described in Example 1. NAD was added in a concentration of 62.5 μM and ADPRT in a concentration of 0.5 μM. Inhibitors 6-amino-1,2-benzopyrone (6-ABP) or 5-iodo-6-amino-1,2-benzopyrone (5-I-6-ABP) were added in concentrations 1000 μM, and 400 μM, respectively.
(§1) The medium (coctail) comprises 50 mM Tris-HCl pH 8.0; 60 mM KCl; 7 mM MgCl2; 40 mM DTT (dithiothreitol) 2 mM GSH (glutathione); 60 μg/ml whole histones/ml (Grade A, Sigma, St. Louis); poly (rA) oligo (dT)12-18 (Pharmacia, Piscataway, N. J.) and 50 μM M(0.1 μCalif.) [alfa ^32 P]TTP (ICN, Irvine, CA.) (Reverse transcriptase uses poly(rA) as template and the annealed oligo(dT) as primer for incorporating the labeled TTP).
(§2) The reverse polymerization was started by adding 0.02 μg of recombinant reverse transcriptase protein (ERC BioServices, Rockville, Md.) into 50 μl of coctail. The reaction mixture incubated at 25° C. for 5 minutes.
(§3) The reaction was stopped by adding 2 ml of ice cold 20% trichloroacetic acid and the precipitated nucleic acids were filtered onto glass fiber filters, dried with ethanol and their incorporated radioactivity counted in a liquid scintillation counter.
Using generally the reverse transcriptase procedure described in Example 1, three groups of samples were prepared. The first group contained the coctail described in the Example 1 containing poly (rA).cndot.oligo (dT)12-18 as a template and drugs 6-ABP or 5-I-6-ABP in concentration 1,000 μM and 400 μM, respectively, without the presence of ADPRT.
The second group contained the same ingredients as group 1 but ADPRT at a concentration to 0.5 μM was added to all samples.
The third group contained the same ingredients as group 2 but NAD in a concentration of 62.5 μM was added.

The subject of experiment [2] is Human recombinant HIV reverse transcriptase. Description: Effect of unmodified and ADP-ribosylated ADPRT on HIV reverse transcriptase activity (FIG. 1, Example 2). How it is done: The basic assay system for measurement of reverse transcriptase activity is described in Example 1. Human recombinant HIV reverse transcriptase used in the assay was obtained from HIV, ERC Bioservices. ADPRT used in this experiment is highly purified ADPRT protein prepared according to Anal. Biochem., 167:160 (1987). ADPRT was added to the reverse transcriptase assay system at various concentrations ranging from 0.01 to 1 μM. When the effect of […], pre-ADP-ribosylated ADPRT was assayed, the ADPRT enzyme was incubated with NAD and cofactors according to FEBS Letters, 212:73 (1987). The poly ADP-ribosylated ADPRT was isolated by centricon ultrafiltration and added in various concentration as shown in FIG. 1.
as §1, §2, §3
A small amount (300 μg) of ADPRT (0.5 μM) of final concentration was incubated with 100 mM NAD in 3 ml of 25 mM Tris-HCl (pH 7.4), 0.3% Tween 20 at 25° C. for three hours to render the protein auto-poly (ADP-ribosyl)ated, then concentrated to 3 mg/ml. Using generally the reverse transcriptase assay conditions as described in Example 1, the effect of automodified and unmodified ADPRT was monitored.

Experiment [3] has as its system recombinant human HIV reverse transcriptase. The experiment in a line: Activation of HIV reverse transcriptase by auto-(ADP-ribosylated) ADPRT (FIG. 2, Example 3). Particulars: 0.5 μM ADPRT, no NAD. How it is done:
Such abrogation and its time dependency is further illustrated in FIG. 2 wherein the activation of HIV reverse transcriptase by auto-ADP-ribosylated ADPRT is expressed as % of reverse transcriptase activity. The experimental conditions are as described in Example 3. […] Samples in columns 3-5 were incubated for time periods as indicated.
The medium (coctail) comprises 50 mM Tris-HCl pH 8.0; 60 mM KCl; 7 mM MgCl2; 40 mM DTT (dithiothreitol) 2 mM GSH (glutathione); 60 μg/ml whole histones/ml (Grade A, Sigma, St. Louis); poly (rA) oligo (dT)12-18 (Pharmacia, Piscataway, N. J.) and 50 μM M(0.1 μCalif.) [alfa ^32 P]TTP (ICN, Irvine, CA.) (Reverse transcriptase uses poly(rA) as template and the annealed oligo(dT) as primer for incorporating the labeled TTP). […]
The reaction was stopped by adding 2 ml of ice cold 20% trichloroacetic acid and the precipitated nucleic acids were filtered onto glass fiber filters, dried with ethanol and their incorporated radioactivity counted in a liquid scintillation counter. […]
The mixture was incubated at 25° C. for 5, 10 and 25 minutes, then the recombinant reverse transcriptase was added and the mixture was incubated for additional 5 minutes. The reaction was stopped, as described above, the precipitate was filtered and radioactivity counted.

As for `Nc1ccc2oc(=O)ccc2c1I` [5-I-6-ABP, 5-iodo-6-amino-1,2-benzopyrone], the “activity of reverse transcriptase” value in experiment [1] (0.5 μM ADPRT + 62.5 μM NAD + 5-I-6-ABP 400 μM (column 9)) was “the same as the one seen in column 6”; in experiment [1] (0.5 μM ADPRT + 5-I-6-ABP 400 μM) it was “only very slightly”; in experiment [1] (0.5 μM ADPRT + 5-I-6-ABP 400 μM, listed as 5-I-ABP, 400 µM), “about 50%”. Also, in experiment [1] (5-I-6-ABP 400 μM), the “HIV reverse transcriptase activity” value was “did not affect”.
With `Nc1ccc2oc(=O)ccc2c1` [6-ABP, 6-amino-1,2-benzopyrone], the reverse transcriptase activity result in experiment [1] (0.5 μM ADPRT + 62.5 μM NAD + 6-ABP 1000 μM) is on record as “about 60%”. Moreover, the “activity of reverse transcriptase” value in experiment [1] (0.5 μM ADPRT + 6-ABP 1000 μM) is on record as “only very slightly”; in experiment [1] (0.5 μM ADPRT + 6-ABP 1000 μM, 1000 µM) it was “about 50%”. In addition, the “HIV reverse transcriptase activity” value in experiment [1] (6-ABP 1000 μM) is “did not affect”.
Turning to “adenosine diphosphoribosyl transferase [ADPRT]”, in experiment [2] (0.05 μM pure ADPRT), the “inhibition of reverse transcriptase activity” value worked out at 10%. Further, the “effect on reverse transcription (FIG. 1 summary)” value in experiment [2] (0.01 to 1 μM added to RT assay) is “inhibits RT in a concentration-dependent manner”. Besides, the “inhibition of reverse transcriptase” value in experiment [2] (around 1-1.3 μM ADPRT) is 75-80%. For the same compound, the “activity of reverse transcriptase” value in experiment [2] (around 1-1.3 μM ADPRT, control 100%) is on record as “about 20%”; in experiment [1] (0.5 μM pure ADPRT only (column 4)), “about 50%”. Moreover, in experiment [3], the “depression/inhibition of reverse transcriptase activity” value is “about 50%”.
